Results reported in patent US20090060984A1, “ANIONIC SURFACTANTS LETHAL TO GRAM-POSITIVE BACTERIA” (priority 2007, published 2009).
“And” between values parts separate entries of the source, which are not always exact repeats. Equal entries are not always repeated. Where two headings read alike, the source gives them in different places.

Test system: Escherichia coli ATCC 11229
Conditions: for E. coli on sprayed household surfaces: metal plate, wall paper, vinyl tile, 0.06% silver solution
Method: The antimicrobial activities of the coatings on coupons and slides are tested against both Gram-positive (Staphylococcus aureus ATCC 6538) and Gram-negative (Escherichia coli ATCC 11229) bacteria. The following set of steps are executed over a four day period, in order to evaluate the coatings for antimicrobial activity.
(1) Three colonies are picked from a Petri dish that contains refrigerator stock of E. coli and S. aureus. Each of the colonies is placed into a separate test tube of 5 mL of TSB (tryptic soy broth); (2) the TSB cultures are incubated in a heated shaker; the culture is grown overnight at 37° C. while shaking at 175 rpm.
(1) 500 μL (0.5 mL) of FINAL E. coli bacteria are placed onto the center of each sterilized coating (24 hour); the same is done with S. aureus; (2) the coupons/coatings are stored for 24 hours in sealed pan by stacking Petri dishes on top of one another; (3) 200 mL of sterile water is added to the bottom of each pan; each pan is enclosed with clear saran wrap and aluminum foil; the Pyrex pans containing the coatings are incubated at room temperature for 24 hours; all inoculations of the coatings are performed in the same laminar flow hood as where the sterilized slides are placed into sterile Petri dishes; the prepared bacterial suspension (0.5 ml) is directly pipetted onto the coating of the slide; the spreading of the innoculum across the surface of the coating is observed and noted.
(1) 500 μL (0.5 mL) of FINAL E. coli bacteria is placed onto the center of each sterilized coating (0 hour); the same is done with S. aureus; (2) after bacteria are added to the 0 hour coatings, each Petri dish (containing the coating) is submerged with 25 mL of PBS; this immersion stops the viable bacteria from continuing to grow; (3) 100 μL of fluid is removed from coatings dish and placed in the middle of a previously labeled TSA plate; this is done to both agar plates labeled with −1 concentration; before removing the fluid, the surface of the coupon is scratched with a sterile loop to activate movement of bacteria; (4) “hockey sticks” are sterilized with ethanol and flame, to spread solution thoroughly; (5) the concentration of bacteria is diluted by removing 500 μL of the fluid in the coupon dish and placing it into a test tube with 4.5 mL of PBS; this solution is diluted in duplicate by removing 100 μL of the fluid and spreading into TSA plates labeled −2; (6) sterilized “hockey sticks” are used to spread solution thoroughly; (7) 500 μL of fluid from 1st tube prepared in step 5 is removed and placed into 4.5 mL of PBS; this dilution is mixed and 100 μL is removed in duplicate and placed into two new TSA plates labeled −3; (8) sterilized “hockey sticks” are used to spread these dilutions thoroughly; (9) steps 1-8 are repeated for each of the coupons or slides.

[1] = acetate sprayed with 0.06% w/w AgAOT/isopropanol, 24 h contact time
[2] = cotton sprayed with 0.06% w/w AgAOT/isopropanol, 24 h contact time
[3] = linen sprayed with 0.06% w/w AgAOT/isopropanol, 24 h contact time
[4] = metal plate sprayed with 0.06% Ag+ AgAOT solution, 0 h contact time
[5] = metal plate sprayed with 0.06% Ag+ AgAOT solution, 24 h contact time
[6] = polyester sprayed with 0.06% w/w AgAOT/isopropanol, 24 h contact time
[7] = silk sprayed with 0.06% w/w AgAOT/isopropanol, 0 h contact time
[8] = silk sprayed with 0.24% w/w AgAOT/isopropanol, 0 h
[9] = silk sprayed with 0.24% w/w AgAOT/isopropanol, 24 h
[10] = vinyl tile sprayed with 0.06% Ag+ AgAOT solution, 0 h contact time
[11] = vinyl tile sprayed with 0.06% Ag+ AgAOT solution, 24 h contact time
[12] = wall-paper sprayed with 0.06% Ag+ AgAOT solution, 24 h contact time

## CCCCC(CC)COC(=O)CC(C(=O)OCC(CC)CCCC)S(=O)(=O)[O-].[Ag+] (centres unmarked) [AgAOT]
0.06% Ag AgAOT/isopropanol, 24 h contact time
  E. coli growth on sprayed fabrics: With the single exception of silk, complete eradication is obtained for each of the other fabrics
Acetate sprayed with 0.06% w/w AgAOT/isopropanol, 0 h contact time
  E. coli CFU/mL, Average: 3.08E+05 CFU/mL
[1]
  E. coli CFU/mL, Average: 0.00E+00 CFU/mL
  E. coli CFU/mL, Run #1-#4: 0.00E+00 CFU/mL
Cotton sprayed with 0.06% w/w AgAOT/isopropanol, 0 h contact time
  E. coli CFU/mL, Average: 2.53E+05 CFU/mL
[2]
  E. coli CFU/mL, Average: 0.00E+00 CFU/mL
  E. coli CFU/mL, Run #1-#4: 0.00E+00 CFU/mL
Linen sprayed with 0.06% w/w AgAOT/isopropanol, 0 h contact time
  E. coli CFU/mL, Average: 1.46E+05 CFU/mL
[3]
  E. coli CFU/mL, Average: 0.00E+00 CFU/mL
  E. coli CFU/mL, Run #1-#4: 0.00E+00 CFU/mL
[4]
  E. coli CFU/mL, Avg: 3.10E+05 CFU/mL
  E. coli CFU/mL, Run #1-#2: 3.40E+05 CFU/mL and 2.80E+05 CFU/mL
[5]
  E. coli CFU/mL, Avg: 0.00E+00 CFU/mL
  E. coli CFU/mL, Run #1-#2: 0.00E+00 CFU/mL
0 h contact time (5-10 minutes)
  E. coli on sprayed household surfaces: does not significantly attenuate E. coli growth
24 h contact time
  E. coli on sprayed household surfaces: eradicated on each of the samples
Polyester sprayed with 0.06% w/w AgAOT/isopropanol, 0 h contact time
  E. coli CFU/mL, Average: 9.10E+04 CFU/mL
[6]
  E. coli CFU/mL, Average: 0.00E+00 CFU/mL
  E. coli CFU/mL, Run #1-#4: 0.00E+00 CFU/mL
Rayon sprayed with 0.06% w/w AgAOT/isopropanol, 0 h contact time
  E. coli CFU/mL, Average: 2.88E+05 CFU/mL
Rayon sprayed with 0.06% w/w AgAOT/isopropanol, 24 h contact time
  E. coli CFU/mL, Average: 3.25E+05 CFU/mL
[7]
  E. coli CFU/mL, Average: 2.55E+05 CFU/mL
  E. coli CFU/mL, Run #1-#2: 2.70E+05 CFU/mL and 2.40E+05 CFU/mL
Silk sprayed with 0.06% w/w AgAOT/isopropanol, 24 h contact time
  E. coli CFU/mL, Average: 2.75E+07 CFU/mL
[8]
  E. coli CFU/mL, Average: 3.38E+05 CFU/mL
  E. coli CFU/mL, Run #1-#4: 3.20E+05 CFU/mL and 3.60E+05 CFU/mL and 3.10E+05 CFU/mL
[9]
  E. coli CFU/mL, Average: 0.00E+00 CFU/mL
  E. coli CFU/mL, Run #1-#4: 0.00E+00 CFU/mL
[10]
  E. coli CFU/mL, Avg: 2.60E+05 CFU/mL
  E. coli CFU/mL, Run #1-#2: 2.30E+05 CFU/mL and 2.90E+05 CFU/mL
[11]
  E. coli CFU/mL, Avg: 0.00E+00 CFU/mL
  E. coli CFU/mL, Run #1-#2: 0.00E+00 CFU/mL
wall-paper sprayed with 0.06% Ag+ AgAOT solution, 0 h contact time
  E. coli CFU/mL, Avg: 1.94E+05 CFU/mL
[12]
  E. coli CFU/mL, Avg: 0.00E+00 CFU/mL
  E. coli CFU/mL, Run #1-#2: 0.00E+00 CFU/mL
